This passage reports IC50 results from patent publication US11084829B2, “Ubiquitin-specific-processing protease 7 (USP7) modulators and uses thereof” (RAPT THERAPEUTICS, INC., priority 2018, dated 2021).

Some results are limits rather than exact numbers.

Chain of USP7 (Q93009 whole entry): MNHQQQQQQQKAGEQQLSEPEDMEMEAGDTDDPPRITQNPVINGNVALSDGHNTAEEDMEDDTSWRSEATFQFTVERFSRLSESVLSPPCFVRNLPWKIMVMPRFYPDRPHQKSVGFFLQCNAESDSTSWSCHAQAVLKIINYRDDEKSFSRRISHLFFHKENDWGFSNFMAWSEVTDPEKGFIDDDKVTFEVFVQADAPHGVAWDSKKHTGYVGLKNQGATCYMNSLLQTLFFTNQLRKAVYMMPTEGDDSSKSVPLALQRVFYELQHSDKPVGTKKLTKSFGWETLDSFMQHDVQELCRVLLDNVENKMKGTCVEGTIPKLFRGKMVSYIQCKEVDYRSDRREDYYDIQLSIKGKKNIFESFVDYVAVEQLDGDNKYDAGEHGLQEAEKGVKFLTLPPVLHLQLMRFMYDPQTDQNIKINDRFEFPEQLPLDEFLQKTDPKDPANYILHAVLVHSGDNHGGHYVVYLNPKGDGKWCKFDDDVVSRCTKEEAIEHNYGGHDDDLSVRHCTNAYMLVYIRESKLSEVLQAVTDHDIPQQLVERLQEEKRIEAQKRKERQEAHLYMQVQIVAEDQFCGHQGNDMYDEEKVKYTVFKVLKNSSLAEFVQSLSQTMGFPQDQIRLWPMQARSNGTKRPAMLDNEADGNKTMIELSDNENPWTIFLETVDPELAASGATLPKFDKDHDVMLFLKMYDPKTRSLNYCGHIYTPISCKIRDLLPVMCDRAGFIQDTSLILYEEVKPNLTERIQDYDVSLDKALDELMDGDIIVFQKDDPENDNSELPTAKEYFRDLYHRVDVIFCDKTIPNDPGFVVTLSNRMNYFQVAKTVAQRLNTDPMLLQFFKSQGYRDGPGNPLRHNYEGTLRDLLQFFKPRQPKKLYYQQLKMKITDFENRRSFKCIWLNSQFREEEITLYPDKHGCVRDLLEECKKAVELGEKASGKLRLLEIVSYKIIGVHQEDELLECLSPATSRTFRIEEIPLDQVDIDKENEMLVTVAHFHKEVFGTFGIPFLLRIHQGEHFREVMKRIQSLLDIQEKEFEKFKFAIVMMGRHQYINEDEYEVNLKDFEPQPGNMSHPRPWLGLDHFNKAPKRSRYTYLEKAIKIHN

The assay addresses USP7 (Homo sapiens, UniProt Q93009). Briefly: USP7 inhibitory potency (IC50). Format: biochemical. On the procedure:
Activity for compounds described herein is provided in Table 2, wherein potency levels are provided as follows: (Potency: USP7 IC50: A<0.01 μM; B=0.01-0.1 μM; C=>0.1 μM.
As for `Cc1cc(Cl)cc(-c2ccnc3cc(CN4C(=O)CCC4=O)sc23)c1C[C@@H]1CNCC(C)(C)O1` [Example 136, (R)-1-((7-(5-chloro-2-((6,6-dimethylmorpholin-2-yl)methyl)-3-methylphenyl)thieno[3,2-b]pyridin-2-yl)methyl)pyrrolidine-2,5-dione], the IC50 is less than 10 nM. Under `Cc1cc(Cl)cc(-c2ccnc3cc(CN4C(=O)C5CC5C4=O)sc23)c1CN1C[C@H](C)NC[C@@H]1C` (stereo partly drawn) [Example 33, 3-((7-(5-chloro-2-(((2S,5 S)-2,5-dimethylpiperazin-1-yl)methyl)-3-methylphenyl)thieno[3,2-b]pyridin-2-yl)methyl)-3-azabicyclo[3.1.0]hexane-2,4-dione] stands less than 10 nM; under `Cc1cc(Cl)cc(-c2ccnc3cc(CN4C(=O)C5CC5C4=O)sc23)c1CC1CNCCS1(=O)=O` (stereo not drawn) [Example 100, 3-((7-(5-chloro-2-((1,1-dioxidothiomorpholin-2-yl)methyl)-3-methylphenyl)thieno[3,2-b]pyridin-2-yl)methyl)-3-azabicyclo[3.1.0]hexane-2,4-dione], 10 to 100 nM. Compound `Cc1cc(Cl)cc(-c2ccnc3cc(CN4C(=O)CCCC4C(F)(F)F)sc23)c1CC1CNCCO1` (stereo not drawn) [Example 122, 1-((7-(5-chloro-3-methyl-2-(morpholin-2-ylmethyl)phenyl)thieno[3,2-b]pyridin-2-yl)methyl)-6-(trifluoromethyl)piperidin-2-one] showed an IC50 greater than 100 nM. Turning to `Cc1cc(Cl)cc(-c2ccnc3cc(CN4C(=O)C5CC5C4=O)sc23)c1CC1CNCC2(COC2)O1` (stereo not drawn) [Example 138, 3-((7-(2-((2,5-dioxa-8-azaspiro[3.5]nonan-6-yl)methyl)-5-chloro-3-methylphenyl)thieno[3,2-b]pyridin-2-yl)methyl)-3-azabicyclo[3.1.0]hexane-2,4-dione], the IC50 was less than 10 nM. `Cc1cc(Cl)cc(-c2ncnc3cc(CN4C(=O)C5C(C4=O)C5(C)C)sc23)c1CN1CCN(C)C[C@@H]1C` (stereo partly drawn) [Example 53, 3-((4-(5-chloro-2-(((S)-2,4-dimethylpiperazin-1-yl)methyl)-3-methylphenyl)thieno[3,2-d]pyrimidin-6-yl)methyl)-6,6-dimethyl-3-azabicyclo[3.1.0]hexane-2,4-dione] returned an IC50 of 10 to 100 nM.

The compound `Cc1cc(Cl)cc(-c2ccnc3c(F)c(CN4C(=O)CCN(C)C4=O)sc23)c1C[C@@H]1CNCCO1` [Example 148, (R)-3-((7-(5-chloro-3-methyl-2-(morpholin-2-ylmethyl)phenyl)-3-fluorothieno[3,2-b]pyridin-2-yl)methyl)-1-methyldihydropyrimidine-2,4(1H,3H)-dione] returned an IC50 of 10 to 100 nM. Under `Cc1cc(Cl)cc(-c2ncnc3cc(CN4C(=O)CCNC4=O)sc23)c1C[C@@H]1CNCCO1` [Example 247, (R)-3-((4-(5-chloro-3-methyl-2-(morpholin-2-ylmethyl)phenyl)thieno[3,2-d]pyrimidin-6-yl)methyl)dihydropyrimidine-2,4(1H,3H)-dione] stands less than 10 nM; under `Cc1cc(Cl)cc(-c2ccnc3cc(CN4C(=O)C5C(C4=O)C5(C)C)sc23)c1CN1[C@@H](C)CNC[C@@H]1C` (stereo partly drawn) [Example 28, 3-((7-(5-chloro-2-(((2S,6S)-2,6-dimethylpiperazin-1-yl)methyl)-3-methylphenyl)thieno[3,2-b]pyridin-2-yl)methyl)-6,6-dimethyl-3-azabicyclo[3.1.0]hexane-2,4-dione], less than 10 nM.

On to `Cc1cc(Cl)cc(-c2ncnc3cc(CN4C(=O)CC[C@@H]4C(=O)O)sc23)c1C[C@@H]1CNCC(C)(C)O1` [Example 225, (R)-1-((4-(5-chloro-2-(((R)-6,6-dimethylmorpholin-2-yl)methyl)-3-methylphenyl)thieno[3,2-d]pyrimidin-6-yl)methyl)-5-oxopyrrolidine-2-carboxylic acid], for which the half-maximal inhibitory concentration (IC50) was greater than 100 nM. On to `Cc1cc(Cl)cc(-c2ncnc3cc(CN4C(=O)CCC4=O)sc23)c1C[C@@H]1CNCC(C)(C)O1` [Example 215, (R)-1-((4-(5-chloro-2-((6,6-dimethylmorpholin-2-yl)methyl)-3-methylphenyl)thieno[3,2-d]pyrimidin-6-yl)methyl)pyrrolidine-2,5-dione], for which the IC50 was less than 10 nM. The compound `Cc1cc(Cl)cc(-c2ccnc3cc(CN4C(=O)CCC4=O)sc23)c1CN1CCNC[C@H]1C` [Example 7, (R)-1-((7-(5-chloro-3-methyl-2-((2-methylpiperazin-1-yl)methyl)phenyl)thieno[3,2-b]pyridin-2-yl)methyl)pyrrolidine-2,5-dione] returned an IC50 of 10 to 100 nM. With `Cc1cc(Cl)cc(-c2ncnc3cc(CN4C(=O)C5C(C4=O)C5(C)C)sc23)c1CN1CCNC[C@@H]1C` (stereo partly drawn) [Example 50, 3-((4-(5-chloro-3-methyl-2-(((S)-2-methylpiperazin-1-yl)methyl)phenyl)thieno[3,2-d]pyrimidin-6-yl)methyl)-6,6-dimethyl-3-azabicyclo[3.1.0]hexane-2,4-dione], the IC50 was less than 10 nM. `Cc1cc(Cl)cc(-c2ncnc3cc(CN4CCOCC4=O)sc23)c1CC1CNCCO1` (stereo not drawn) [Example 172, 4-((4-(5-chloro-3-methyl-2-(morpholin-2-ylmethyl)phenyl)thieno[3,2-d]pyrimidin-6-yl)methyl)morpholin-3-one] had an IC50 greater than 100 nM. Under `Cc1cc(Cl)cc(-c2ncnc3cc(Cn4c(C#N)cccc4=O)sc23)c1C[C@@H]1CNCC(C)(C)O1` [Example 262, (R)-1-((4-(5-chloro-2-((6,6-dimethylmorpholin-2-yl)methyl)-3-methylphenyl)thieno[3,2-d]pyrimidin-6-yl)methyl)-6-oxo-1,6-dihydropyridine-2-carbonitrile] stands greater than 100 nM.

Regarding `Cc1cc(Cl)cc(-c2ncnc3cc(CN4C(=O)C5CC5C4=O)sc23)c1C[C@@H]1CNCC(C)(C)O1` (stereo partly drawn) [Example 216, 3-((4-(5-chloro-2-(((R)-6,6-dimethylmorpholin-2-yl)methyl)-3-methylphenyl)thieno[3,2-d]pyrimidin-6-yl)methyl)-3-azabicyclo[3.1.0]hexane-2,4-dione], the IC50 was less than 10 nM. For `Cc1cc(Cl)cc(-c2ccnc3cc(CN4C(=O)C5C(C4=O)C5(C)C)sc23)c1CC1OCCNC1=O` (stereo not drawn) [Example 101, 3-((7-(5-chloro-3-methyl-2-((3-oxomorpholin-2-yl)methyl)phenyl)thieno[3,2-b]pyridin-2-yl)methyl)-6,6-dimethyl-3-azabicyclo[3.1.0]hexane-2,4-dione] the value was 10 to 100 nM; for `CC1(C)CNCC(Cc2c(Cl)cc(Cl)cc2-c2ncnc3cc(CN4C(=O)CCC4=O)sc23)O1` (stereo not drawn) [Example 211, 1-((4-(3,5-dichloro-2-((6,6-dimethylmorpholin-2-yl)methyl)phenyl)thieno[3,2-d]pyrimidin-6-yl)methyl)pyrrolidine-2,5-dione], less than 10 nM; for `CC[C@H]1CNCCN1Cc1c(C)cc(Cl)cc1-c1ncnc2cc(CN3C(=O)C4C(C3=O)C4(C)C)sc12` (stereo partly drawn) [Example 52, 3-((4-(5-chloro-2-(((S)-2-ethylpiperazin-1-yl)methyl)-3-methylphenyl)thieno[3,2-d]pyrimidin-6-yl)methyl)-6,6-dimethyl-3-azabicyclo[3.1.0]hexane-2,4-dione], 10 to 100 nM.

`CCN1CCN(Cc2c(C)cc(Cl)cc2-c2ccnc3cc(CN4C(=O)CCC4=O)sc23)[C@@H](C)C1` [Example 11, (S)-1-((7-(5-chloro-2-((4-ethyl-2-methylpiperazin-1-yl)methyl)-3-methylphenyl)thieno[3,2-b]pyridin-2-yl)methyl)pyrrolidine-2,5-dione] displayed an IC50 of less than 10 nM. Under `Cc1cc(Cl)cc(-c2ncnc3cc(CN4C(=O)CC[C@H]4C(F)(F)F)sc23)c1CN1[C@@H](C)CNC[C@@H]1C` [Example 90, (S)-1-((4-(5-chloro-2-(((2S,6S)-2,6-dimethylpiperazin-1-yl)methyl)-3-methylphenyl)thieno[3,2-d]pyrimidin-6-yl)methyl)-5-(trifluoromethyl)pyrrolidin-2-one] stands greater than 100 nM; under `CN1CCC(=O)N(Cc2cc3ncnc(-c4cc(Cl)cc(Cl)c4CC4CNCCO4)c3s2)C1=O` (stereo not drawn) [Example 205, 3-((4-(3,5-dichloro-2-(morpholin-2-ylmethyl)phenyl)thieno[3,2-d]pyrimidin-6-yl)methyl)-1-methyldihydropyrimidine-2,4(1H,3H)-dione], less than 10 nM. Under `CC1(C)CNCC(Cc2c(Cl)cc(Cl)cc2-c2ncnc3cc(Cn4cnccc4=O)sc23)O1` (stereo not drawn) [Example 251, 3-((4-(3,5-dichloro-2-((6,6-dimethylmorpholin-2-yl)methyl)phenyl)thieno[3,2-d]pyrimidin-6-yl)methyl)pyrimidin-4(3H)-one] stands greater than 100 nM; under `Cc1cc(Cl)cc(-c2ncnc3cc(CN4CCCC4=O)sc23)c1CN1C[C@@H](C)NC[C@@H]1C` [Example 81, 1-((4-(5-chloro-2-(((2S,5R)-2,5-dimethylpiperazin-1-yl)methyl)-3-methylphenyl)thieno[3,2-d]pyrimidin-6-yl)methyl)pyrrolidin-2-one], greater than 100 nM; under `Cc1cc(Cl)cc(-c2ncnc3cc(CN4C(=O)CCC4=O)sc23)c1C[C@H]1CNCC(C)(C)O1` [Example 212, (S)-1-((4-(5-chloro-2-((6,6-dimethylmorpholin-2-yl)methyl)-3-methylphenyl)thieno[3,2-d]pyrimidin-6-yl)methyl)pyrrolidine-2,5-dione], 10 to 100 nM. For `Cc1cc(Cl)cc(-c2ncnc3cc(CN4C(=O)COCC4=O)sc23)c1CC1CNCCO1` (stereo not drawn) [Example 169, 4-((4-(5-chloro-3-methyl-2-(morpholin-2-ylmethyl)phenyl)thieno[3,2-d]pyrimidin-6-yl)methyl)morpholine-3,5-dione] the value was less than 10 nM. As to `Cc1cc(Cl)cc(-c2ccnc3cc(CN4C(=O)C5C(C4=O)C5(C)C)sc23)c1CN1C[C@@H](C)NC[C@@H]1C` (stereo partly drawn) [Example 39, 3-((7-(5-chloro-2-(((2S,5R)-2,5-dimethylpiperazin-1-yl)methyl)-3-methylphenyl)thieno[3,2-b]pyridin-2-yl)methyl)-6,6-dimethyl-3-azabicyclo[3.1.0]hexane-2,4-dione], the IC50 is less than 10 nM.
